Values after ≈ are worked out from the molar mass of the structure shown. One block for each molecule: values may come before it. Active and inactive are the calls of the source. The rule behind the calls is not given here.
What was measured:
[1] = tested on: Acinetobacter baumannii; assay: Potentiation of doxycycline-induced antibacterial activity against Acinetobacter baumannii ATCC 19606 assessed as concentration required to restore 2 ug/ml doxycycline activity measured after 18 hrs; assay type: functional, ATCC 19606 = CIP 70.34 = JCM 6841
[2] = tested on: Acinetobacter baumannii; assay: Antibacterial activity against Acinetobacter baumannii ATCC 19606 measured after 18 hrs by resazurin dye based assay; assay type: functional; conditions: ATCC 19606 = CIP 70.34 = JCM 6841, 18 h
[3] = tested on: Escherichia coli; assay: Antibacterial activity against Escherichia coli ATCC 25922 measured after 18 hrs by broth dilution method; assay type: functional; conditions: ATCC 25922, 18 h
[4] = tested on: Escherichia coli; assay: Potentiation of doxycycline-induced antibacterial activity against Escherichia coli ATCC 25922 assessed as concentration required to restore 2 ug/ml doxycycline activity measured after 18 hrs; assay type: functional
[5] = tested on: Pseudomonas aeruginosa; assay: Antibacterial activity against Pseudomonas aeruginosa ATCC 27853 measured after 18 hrs by broth dilution method; assay type: functional; conditions: ATCC 27853, 18 h
[6] = tested on: Klebsiella pneumoniae; assay: Potentiation of doxycycline-induced antibacterial activity against Klebsiella pneumoniae ATCC 700603 assessed as concentration required to restore 2 ug/ml doxycycline activity measured after 18 hrs; assay type: functional
[7] = tested on: Klebsiella pneumoniae; assay: Antibacterial activity against Klebsiella pneumoniae ATCC 700603 measured after 18 hrs by resazurin dye based assay; assay type: functional; conditions: Klebsiella pneumoniae, 700603, 18 h
[8] = tested on: Pseudomonas aeruginosa; assay: Potentiation of doxycycline-induced antibacterial activity against Pseudomonas aeruginosa ATCC 27853 assessed as concentration required to restore 2 ug/ml doxycycline activity measured after 18 hrs; assay type: functional
[9] = tested on: Pseudomonas aeruginosa; assay: Potentiation of nalidixic acid-induced antibacterial activity against Pseudomonas aeruginosa ATCC 27853 assessed as concentration required to restore 2 ug/ml nalidixic acid activity measured after 18 hrs; assay type: functional
[10] = tested on: Klebsiella pneumoniae; assay: Potentiation of nalidixic acid-induced antibacterial activity against Klebsiella pneumoniae ATCC 700603 assessed as concentration required to restore 2 ug/ml nalidixic acid activity measured after 18 hrs; assay type: functional
[11] = tested on: Escherichia coli; assay: Potentiation of nalidixic acid-induced antibacterial activity against Escherichia coli ATCC 25922 assessed as concentration required to restore 2 ug/ml nalidixic acid activity measured after 18 hrs; assay type: functional
[12] = tested on: Acinetobacter baumannii; assay: Potentiation of nalidixic acid-induced antibacterial activity against Acinetobacter baumannii ATCC 19606 assessed as concentration required to restore 2 ug/ml nalidixic acid activity measured after 18 hrs; assay type: functional, ATCC 19606 = CIP 70.34 = JCM 6841
[13] = tested on: HEK293; assay: (§1) Cytotoxicity against HEK293 cells measured after 20 hrs by resazurin dye based fluorescence assay; assay type: cell-based, Homo sapiens; conditions: Homo sapiens, HEK293, 20 h
[14] = tested on: Pseudomonas aeruginosa; assay: Potentiation of erythromycin-induced antibacterial activity against Pseudomonas aeruginosa ATCC 27853 assessed as concentration required to restore 2 ug/ml erythromycin activity measured after 18 hrs; assay type: functional
[15] = tested on: Klebsiella pneumoniae; assay: Potentiation of erythromycin-induced antibacterial activity against Klebsiella pneumoniae ATCC 700603 assessed as concentration required to restore 2 ug/ml erythromycin activity measured after 18 hrs; assay type: functional
[16] = tested on: Escherichia coli; assay: Potentiation of erythromycin-induced antibacterial activity against Escherichia coli ATCC 25922 assessed as concentration required to restore 2 ug/ml erythromycin activity measured after 18 hrs; assay type: functional
[17] = tested on: Acinetobacter baumannii; assay: Potentiation of erythromycin-induced antibacterial activity against Acinetobacter baumannii ATCC 19606 assessed as concentration required to restore 2 ug/ml erythromycin activity measured after 18 hrs; assay type: functional, ATCC 19606 = CIP 70.34 = JCM 6841
[18] = tested on: Escherichia coli; assay: Potentiation of chloramphenicol-induced antibacterial activity against Escherichia coli ATCC 25922 assessed as concentration required to restore 2 ug/ml chloramphenicol activity measured after 18 hrs; assay type: functional
[19] = tested on: Staphylococcus intermedius; assay: Antibacterial activity against Staphylococcus intermedius 1051997 measured after 18 hrs by broth dilution method; assay type: functional; conditions: Staphylococcus intermedius, 1051997, 18 h
[20] = tested on: Klebsiella pneumoniae; assay: Potentiation of chloramphenicol-induced antibacterial activity against Klebsiella pneumoniae ATCC 700603 assessed as concentration required to restore 2 ug/ml chloramphenicol activity measured after 18 hrs; assay type: functional
[21] = tested on: Acinetobacter baumannii; assay: Potentiation of chloramphenicol-induced antibacterial activity against Acinetobacter baumannii ATCC 19606 assessed as concentration required to restore 2 ug/ml chloramphenicol activity measured after 18 hrs; assay type: functional, ATCC 19606 = CIP 70.34 = JCM 6841
[22] = tested on: Staphylococcus aureus; assay: Antibacterial activity against Staphylococcus aureus ATCC 25923 measured after 18 hrs by broth dilution method; assay type: functional; conditions: ATCC 25923, 18 h
[23] = tested on: Pseudomonas aeruginosa; assay: Potentiation of chloramphenicol-induced antibacterial activity against Pseudomonas aeruginosa ATCC 27853 assessed as concentration required to restore 2 ug/ml chloramphenicol activity measured after 18 hrs; assay type: functional
[24] = tested on: Klebsiella pneumoniae; assay: Antibacterial activity against Klebsiella pneumoniae ATCC 700603 at 32 ug/ml measured after 18 hrs by resazurin dye based assay; assay type: functional, organism-based
[25] = as §1; assay type: cell-based, Homo sapiens; conditions: human, HEK293 cells
[26] = tested on: Staphylococcus aureus; assay: Induction of membrane depolarization in Staphylococcus aureus ATCC 25923 measured after 15 mins by DiSC3(5) dye based spectrofluorometric method; assay type: functional, organism-based
[27] = tested on: Erythrocyte; assay: Hemolytic activity against human RBC incubated for 10 mins under shaking condition measured after 1 hr; assay type: ADME, cell-based
[28] = tested on: Pseudomonas aeruginosa; assay: Disruption of membrane integrity in Pseudomonas aeruginosa PAO1 assessed as increase in extracellular ATP level by luciferin-luciferase reagent based luminescence assay; assay type: functional, organism-based
[29] = tested on: Pseudomonas aeruginosa; assay: Induction of membrane depolarization in Pseudomonas aeruginosa PAO1 at 10.4 uM measured after 15 mins by DiSC3(5) dye based spectrofluorometric method; assay type: functional, organism-based
[30] = tested on: Staphylococcus aureus; assay: Induction of membrane depolarization in Staphylococcus aureus ATCC 25923 at 10.4 uM measured after 15 mins by DiSC3(5) dye based spectrofluorometric method; assay type: functional, organism-based
[31] = tested on: Cryptococcus neoformans; assay: Antifungal activity against Cryptococcus neoformans ATCC 208821 measured after 36 hrs by resazurin dye based assay; assay type: functional; conditions: ATCC 208821, 36 h
[32] = tested on: Staphylococcus aureus; assay: Disruption of membrane integrity in Staphylococcus aureus ATCC 25923 assessed as increase in extracellular ATP level by luciferin-luciferase reagent based luminescence assay; assay type: functional, organism-based
[33] = tested on: Acinetobacter baumannii; assay: Antibacterial activity against Acinetobacter baumannii ATCC 19606 at 32 ug/ml measured after 18 hrs by resazurin dye based assay; assay type: functional, organism-based; conditions: ATCC 19606 = CIP 70.34 = JCM 6841
[34] = tested on: Pseudomonas aeruginosa; assay: Disruption of membrane integrity in Pseudomonas aeruginosa PAO1 assessed as decrease in intracellular ATP level at 10 ug/ml by luciferin-luciferase reagent based luminescence assay relative to control; assay type: functional; design: scale not given: the % may be the effect or the level left
[35] = tested on: Erythrocyte; assay: Hemolytic activity against human RBC at 32 ug/ml incubated for 10 mins under shaking condition measured after 1 hr; assay type: ADME, cell-based
[36] = tested on: Candida albicans; assay: Antifungal activity against Candida albicans ATCC 90028 measured after 36 hrs; assay type: functional; conditions: ATCC 90028, 36 h

SMILES: CCn1cc(C(=O)O)c(=O)c2ccc(C)nc21 [NALIDIXIC ACID]
Activity [9]: 50 µM | MIC [2]: > 200 µM | Activity [10]: 25 µM | MIC [3]: > 200 µM | MIC [5]: > 200 µM | Activity [11]: >200 µM | Activity [12]: 200 µM | MIC [7]: 100 µM (≈ 23.2 µg/mL)

SMILES: CC/C(=C(\c1ccccc1)c1ccc(OCCN(C)C)cc1)c1ccccc1 [TAMOXIFEN]
IC50 [13]: 24 µM

Further lines, with some results ahead:

MIC [2]: 12.5 µM | MIC [3]: 50 µM | MIC [5]: 25 µM | MIC [7]: 25 µM
SMILES: C[C@H]1c2cccc(O)c2C(=O)C2=C(O)[C@]3(O)C(=O)C(C(N)=O)=C(O)[C@@H](N(C)C)[C@@H]3[C@@H](O)[C@@H]21.O [DOXYCYCLINE]
Activity [1]: 25 µM | Activity [4]: 6.25 µM | Activity [6]: 6.25 µM | Activity [8]: 12.5 µM

MIC [2]: 200 µM (≈ 147 µg/mL) | MIC [3]: > 200 µM | MIC [5]: > 200 µM | MIC [7]: > 200 µM
SMILES: CC[C@H]1OC(=O)[C@H](C)[C@@H](O[C@H]2C[C@@](C)(OC)[C@@H](O)[C@H](C)O2)[C@H](C)[C@@H](O[C@@H]2O[C@H](C)C[C@H](N(C)C)[C@H]2O)[C@](C)(O)C[C@@H](C)C(=O)[C@H](C)[C@@H](O)[C@]1(C)O [ERYTHROMYCIN]
Activity [14]: 200 µM | Activity [15]: 50 µM | Activity [16]: 50 µM | Activity [17]: 25 µM

MIC [2]: > 200 µM | MIC [3]: > 200 µM | MIC [5]: > 200 µM | MIC [19]: 3 to 6 µM (≈ 0.969 to 1.94 µg/mL) | MIC [7]: 50 µM (≈ 16.2 µg/mL) | MIC [22]: 1.5 to 3 µM (≈ 0.485 to 0.969 µg/mL)
SMILES: O=C(N[C@H](CO)[C@H](O)c1ccc([N+](=O)[O-])cc1)C(Cl)Cl [CHLORAMPHENICOL]
Activity [18]: >200 µM | Activity [20]: 200 µM | Activity [21]: >200 µM | Activity [23]: >200 µM

MIC [2]: > 34 µM | Activity [28]: Dose-dependent effect | MIC [3]: 100 µM (≈ 70.2 µg/mL) | MIC [5]: 100 µM (≈ 70.2 µg/mL) | MIC [19]: 3.12 µM (≈ 2.2 µg/mL) | MIC [31]: 1.1 µM (≈ 0.773 µg/mL) | MIC [7]: > 34 µM | MIC [22]: 6.25 µM (≈ 4.39 µg/mL) | MIC [36]: 17.2 µM (≈ 12.1 µg/mL)
SMILES: O=C(NCCCNCCCCNCCCNC(=O)C(=O)c1c[nH]c2cc(Br)ccc12)C(=O)c1c[nH]c2cc(Br)ccc12
Activity [24]: inactive | CC50 at 20 h [25]: 5.06 µM | Activity [26]: Dose-dependent effect | HC10 [27]: > 34 µM | Activity [29]: Active | Activity [30]: Active | Activity [32]: Dose-dependent effect | Activity [33]: inactive | Activity [34]: 10% | Activity [35]: Non-Toxic | Activity [8]: 6.25 µM

From ChEMBL document CHEMBL4339208, “6-Bromoindolglyoxylamido derivatives as antimicrobial agents and antibiotic enhancers” (Bioorg Med Chem, 2019)
